Patent US20220395522A1, “Methods of Use of Glucosamine for Increasing Nitrogen Retention” (TSI Bioproducts (Xuzhou) Co., Ltd., priority 2021, published 2022)
Where two headings read alike, the source gives them in different places.

Assay type: in vivo, human
Details: for Fecal 3-Hydroxybutyrate / Fecal Acetate / Fecal Alanine / Fecal Butyrate / Fecal Cadaverine / Fecal Ethanol / Fecal Formate / Fecal Fumarate / Fecal Glucose / Fecal Glutamate / Fecal Glycerol / Fecal Glycine / Fecal Hypoxanthine / Fecal Isobutyrate / Fecal Isoleucine / Fecal Isovalerate / Fecal Lactate / Fecal Leucine / Fecal Lysine / Fecal Methionine / Fecal Methionine-sulfoxide / Fecal N-Acetylglucosamine / Fecal Nicotinate / Fecal Phenylacetate / Fecal Phenylalanine / Fecal Proline / Fecal Propionate / Fecal Putrescine / Fecal Ribose / Fecal Succinate / Fecal Threonine / Fecal Total AA / Fecal Total BCAAs / Fecal Total SCFA / Fecal Tyrosine / Fecal Uracil / Fecal Urocanate / Fecal Valerate / Fecal Valine / Fecal Xylose / Fecal p-Cresol: GLU condition, mean ± SD
Excerpt: Stool specimens were collected at four time points throughout the entire study protocol. The first two samples were collected before and after the first supplementation period while the final two samples were collected before and after the second supplementation period. All stool specimens were collected no more than 24-hours prior to that study participant being scheduled to complete their laboratory visit. All samples were immediately frozen after sample collection by the study participants. Participants were instructed to keep their samples in the freezer and to remove them at the latest possible time to minimize thawing during transfer to the laboratory for storage. Participants were provided with all materials necessary to collect, store, and transport the stool specimen including commode fecal collection system, fecal collection tubes with screw top lids and scoops attached, disposable gloves, freezer packs, specimen labels, and transfer containers. Participants were instructed to raise the toilet seat and place the stool collection frame on the back of the toilet bowl and then lower the toilet seat down and place collection bowl in frame. Participants then sat on the toilet and collected a stool sample into the container. Participants were instructed, if possible, to not urinate into the collection container. Participants then extracted a representative stool sample and filled each of the two provided sample collection tubes. Tubes were then secured, labeled, and frozen. All remaining stool was discarded into the toilet and flushed. Upon arrival in the laboratory each sample was immediately stored at −80° C.
A Fecal Metabolome Analysis was further conducted. Samples were manually homogenized with a sterile microspatula, and approximately 250 mg of fecal material was weighed and extracted using 1.5 mL of ice-cold Dulbecco's phosphate buffered saline (DPBS, 1×, pH 7.4). After extraction, samples were centrifuged, and the pellet was dried using a Labconco FreeZone 4.5 L Freeze Dry System to determine fecal dry weight. The supernatant was sequentially filtered through a 0.22 μm pore-size syringe filter (Millex-GP syringe filter, Millipore, Billerica, Mass.) to remove microbes followed by a 3 kDa ultracentrifugal filter (Amicon ultracentrifugal filter, Millipore, Billerica, Mass.) to remove any excess proteins. To 207 […], 23 […] (5 mM DSS-d6 (trimethylsilylpropanesulfonate) containing 0.2% NaN3 in 99.8% D20 was added to aid in quantification of metabolites. The pH of each sample was adjusted to 6.8±0.1 through addition of small amounts of NaOH or HCl. Samples were transferred to 3 mm Bruker NMR tubes (Bruker, Brillerica, Mass.) and stored at 4° C. until spectral acquisition. Nuclear magnetic resonance (NMR) spectra were acquired using a Bruker Avance 600 MHz NMR spectrometer equipped with a SampleJet autosampler (Bruker BioSpin, Germany) at 298 K using the NOESY 1H presaturation experiment (‘noesypr1d’). Data were acquired with a spectral width of 12 ppm, a 2.5-second acquisition time, a relaxation delay of 2.5 seconds, and a 100-millisecond mixing time using 32 transients and 8 dummy scans. Water saturation was applied during the relaxation delay and mixing time. Each spectrum was Fourier Transformed with zero filling to 128,000 data points, and the resulting Free Induction Decay (FID) was transformed with an exponential apodization function corresponding to a line-broadening of 0.5 Hz. Spectra were subsequently phased and baseline corrected using Chenomx NMRSuite Processor v8.3 (Chenomx Inc., Edmonton, Canada). Metabolites were identified and quantified based on the known concentration of the internal standard, using Chenomx NMRSuite Profiler v8.3 based on the established method of targeted profiling.

[1] = Post 21 days, 3 x 1,000 mg/day oral

Cl.N[C@H]1C(O)O[C@H](CO)[C@@H](O)[C@@H]1O (some centres unmarked) [GLU, glucosamine hydrochloride]
Fecal 3-Hydroxybutyrate [1]: 76 ± 35
Fecal Acetate [1]: 43,680 ± 11,351
Fecal Alanine [1]: 2228 ± 721
Fecal Butyrate [1]: 13,538 ± 6558
Fecal Cadaverine [1]: 165 ± 56
Fecal Ethanol [1]: 272 ± 187
Fecal Formate [1]: 403 ± 299
Fecal Fumarate [1]: 218 ± 115
Fecal Glucose [1]: 3334 ± 2753
Fecal Glutamate [1]: 6773 ± 2223
Fecal Glycerol [1]: 6397 ± 3575
Fecal Glycine [1]: 965 ± 399
Fecal Hypoxanthine [1]: 325 ± 143
Fecal Isobutyrate [1]: 1956 ± 1334
Fecal Isoleucine [1]: 777 ± 388
Fecal Isovalerate [1]: 1712 ± 1304
Fecal Lactate [1]: 172 ± 396
Fecal Leucine [1]: 1094 ± 496
Fecal Lysine [1]: 1454 ± 554
Fecal Methionine [1]: 352 ± 210
Fecal Methionine-sulfoxide [1]: 202 ± 149
Fecal N-Acetylglucosamine [1]: 187 ± 152
Fecal Nicotinate [1]: 271 ± 106
Fecal Phenylacetate [1]: 999 ± 786
Fecal Phenylalanine [1]: 544 ± 208
Fecal Proline [1]: 654 ± 326
Fecal Propionate [1]: 12,663 ± 5766
Fecal Putrescine [1]: 115 ± 61
Fecal Ribose [1]: 1332 ± 533
Fecal Succinate [1]: 758 ± 430
Fecal Threonine [1]: 659 ± 252
Fecal Total AA [1]: 17,208 ± 5190
Fecal Total BCAAs [1]: 2873 ± 1312
Fecal Total SCFA [1]: 76,527 ± 25,492
Fecal Tyrosine [1]: 707 ± 273
Fecal Uracil [1]: 684 ± 287
Fecal Urocanate [1]: 85 ± 48
Fecal Valerate [1]: 2574 ± 1519
Fecal Valine [1]: 1003 ± 451
Fecal Xylose [1]: 702 ± 545
Fecal p-Cresol [1]: 551 ± 537
Fecal 3-Hydroxybutyrate (Pre (baseline)): 89 ± 62
Fecal Acetate (Pre (baseline)): 40,675 ± 12,876
Fecal Alanine (Pre (baseline)): 2667 ± 1134
Fecal Butyrate (Pre (baseline)): 11,370 ± 5781
Fecal Cadaverine (Pre (baseline)): 170 ± 52
Fecal Ethanol (Pre (baseline)): 169 ± 98
Fecal Formate (Pre (baseline)): 298 ± 166
Fecal Fumarate (Pre (baseline)): 225 ± 151
Fecal Glucose (Pre (baseline)): 2229 ± 2054
Fecal Glutamate (Pre (baseline)): 8882 ± 3831
Fecal Glycerol (Pre (baseline)): 7458 ± 7347
Fecal Glycine (Pre (baseline)): 1207 ± 514
Fecal Hypoxanthine (Pre (baseline)): 414 ± 190
Fecal Isobutyrate (Pre (baseline)): 2097 ± 887
Fecal Isoleucine (Pre (baseline)): 1029 ± 462
Fecal Isovalerate (Pre (baseline)): 1885 ± 886
Fecal Lactate (Pre (baseline)): 60 ± 49
Fecal Leucine (Pre (baseline)): 1422 ± 622
Fecal Lysine (Pre (baseline)): 1834 ± 815
Fecal Methionine (Pre (baseline)): 424 ± 290
Fecal Methionine-sulfoxide (Pre (baseline)): 258 ± 191
Fecal N-Acetylglucosamine (Pre (baseline)): 249 ± 147
Fecal Nicotinate (Pre (baseline)): 327 ± 162
Fecal Phenylacetate (Pre (baseline)): 1095 ± 511
Fecal Phenylalanine (Pre (baseline)): 629 ± 280
Fecal Proline (Pre (baseline)): 687 ± 280
Fecal Propionate (Pre (baseline)): 12,596 ± 4145
Fecal Putrescine (Pre (baseline)): 92 ± 59
Fecal Ribose (Pre (baseline)): 1428 ± 760
Fecal Succinate (Pre (baseline)): 635 ± 289
Fecal Threonine (Pre (baseline)): 831 ± 355
Fecal Total AA (Pre (baseline)): 21,838 ± 8104
Fecal Total BCAAs (Pre (baseline)): 3802 ± 1674
Fecal Total SCFA (Pre (baseline)): 71,612 ± 22,891
Fecal Tyrosine (Pre (baseline)): 874 ± 394
Fecal Uracil (Pre (baseline)): 922 ± 352
Fecal Urocanate (Pre (baseline)): 104 ± 57
Fecal Valerate (Pre (baseline)): 2691 ± 1314
Fecal Valine (Pre (baseline)): 1351 ± 610
Fecal Xylose (Pre (baseline)): 441 ± 420
Fecal p-Cresol (Pre (baseline)): 597 ± 330
Fecal 3-Hydroxybutyrate, % (PLA vs. GLU, between-group): 4.3%
Fecal Acetate, % (PLA vs. GLU, between-group): 0.5%
Fecal Alanine, % (PLA vs. GLU, between-group): −33.4%
Fecal Butyrate, % (PLA vs. GLU, between-group): 14.3%
Fecal Cadaverine, % (PLA vs. GLU, between-group): −29.1%
Fecal Ethanol, % (PLA vs. GLU, between-group): 123.7%
Fecal Formate, % (PLA vs. GLU, between-group): 30.7%
Fecal Fumarate, % (PLA vs. GLU, between-group): −29.4%
Fecal Glucose, % (PLA vs. GLU, between-group): 61.4%
Fecal Glutamate, % (PLA vs. GLU, between-group): −30.7%
Fecal Glycerol, % (PLA vs. GLU, between-group): −33.0%
Fecal Glycine, % (PLA vs. GLU, between-group): −34.5%
Fecal Hypoxanthine, % (PLA vs. GLU, between-group): −27.1%
Fecal Isobutyrate, % (PLA vs. GLU, between-group): −38.6%
Fecal Isoleucine, % (PLA vs. GLU, between-group): −40.5%
Fecal Isovalerate, % (PLA vs. GLU, between-group): −18.9%
Fecal Lactate, % (PLA vs. GLU, between-group): 107.7%
Fecal Leucine, % (PLA vs. GLU, between-group): −28.4%
Fecal Lysine, % (PLA vs. GLU, between-group): −32.1%
Fecal Methionine, % (PLA vs. GLU, between-group): −23.7%
Fecal Methionine-sulfoxide, % (PLA vs. GLU, between-group): 37.4%
Fecal N-Acetylglucosamine, % (PLA vs. GLU, between-group): −34.9%
Fecal Nicotinate, % (PLA vs. GLU, between-group): −6.6%
Fecal Phenylacetate, % (PLA vs. GLU, between-group): −30.6%
Fecal Phenylalanine, % (PLA vs. GLU, between-group): −15.6%
Fecal Proline, % (PLA vs. GLU, between-group): −5.7%
Fecal Propionate, % (PLA vs. GLU, between-group): −10.0%
Fecal Putrescine, % (PLA vs. GLU, between-group): 5.0%
Fecal Ribose, % (PLA vs. GLU, between-group): −37.4%
Fecal Succinate, % (PLA vs. GLU, between-group): 8.0%
Fecal Threonine, % (PLA vs. GLU, between-group): −31.8%
Fecal Total AA, % (PLA vs. GLU, between-group): −31.0%
Fecal Total BCAAs, % (PLA vs. GLU, between-group): −36.5%
Fecal Total SCFA, % (PLA vs. GLU, between-group): −1.3%
Fecal Tyrosine, % (PLA vs. GLU, between-group): −30.5%
Fecal Uracil, % (PLA vs. GLU, between-group): −34.7%
Fecal Urocanate, % (PLA vs. GLU, between-group): −38.7%
Fecal Valerate, % (PLA vs. GLU, between-group): −36.0%
Fecal Valine, % (PLA vs. GLU, between-group): −42.4%
Fecal Xylose, % (PLA vs. GLU, between-group): 70.8%
Fecal p-Cresol, % (PLA vs. GLU, between-group): −27.7%
Fecal glutamate, isoleucine, leucine and valine content (compared to baseline, p<0.05): significantly reduced
Total amino acids, change (compared to baseline, p<0.05): −21%
Total branched-chain amino acid, change (compared to baseline, p<0.05): −24%
Fecal nucleotides (uracil) (compared to baseline, p=0.02): significantly reduced
Effect on individual or total short-chain fatty acids (p>0.05): no effect
